Assay results taken from paper PMC10180488, “Novel Derivatives of Eugenol as a New Class of PPARγ Agonists in Treating Inflammation: Design, Synthesis, SAR Analysis and In Vitro Anti-Inflammatory Activity” (Molecules, 2023).

What was measured:
[1] = system: human red blood cells (HRBC); assay: HRBC membrane stabilization method; settings: for HRBC membrane stabilization (percentage protection against HRBC lysis): mean ± SD (n = 3); for IC50: Homo sapiens, Erythrocyte, read-out: IC50 Values, HRBC membrane stabilization method
Method: The principle of this procedure is to stabilize the membrane of human red blood cells by hypotonic membrane lysis. […] Lysosomal enzyme levels typically decrease as the HRBC membrane is stabilized.
The packed cells in this blood solution were separated after centrifugation at 3000 rpm [41]. The packed cells were cleaned using an isosaline solution, and then, isosaline was used to prepare a 10% v/v suspension. This HRBC suspension was employed to estimate its anti-inflammatory properties. Different concentrations of the synthesized compounds and the reference standard were each combined with 1 mL of phosphate buffer (pH 7.4), 2 mL of hyposaline, and 0.5 mL of HRBC solution. A total of 2.0 mL of distilled water was utilized as the control. The assay mixtures were all centrifuged at 3000 rpm after 30 min of incubation at 37°C. The following formula was used to determine the percentage of stabilized HRBC membranes. Percentage protection= 100 − (OD sample/OD control) × 100

egg albumin = egg albumin (Gallus gallus, UniProt P01012); assay: Albumin denaturation assay; type: biochemical, hen; settings: mean ± SD (n = 3), read-out: Percentage inhibition of denaturation of albumin
Sequence of egg albumin (P01012 2-386): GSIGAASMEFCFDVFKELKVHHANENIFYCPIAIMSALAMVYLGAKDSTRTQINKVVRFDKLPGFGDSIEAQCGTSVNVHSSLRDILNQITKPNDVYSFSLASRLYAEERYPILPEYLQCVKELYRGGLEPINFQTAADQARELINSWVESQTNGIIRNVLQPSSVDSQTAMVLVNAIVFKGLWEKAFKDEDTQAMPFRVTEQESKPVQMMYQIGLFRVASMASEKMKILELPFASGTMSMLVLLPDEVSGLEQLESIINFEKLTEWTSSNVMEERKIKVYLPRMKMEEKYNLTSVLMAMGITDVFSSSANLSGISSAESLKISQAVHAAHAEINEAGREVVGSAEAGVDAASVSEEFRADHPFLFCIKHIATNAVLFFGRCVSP
Method: Inflammation is accompanied by protein denaturation. Tissue protein denaturation is a well-established cause of Inflammatory illnesses. Inflammatory disorders including rheumatoid arthritis, diabetes, and cancer have been linked to the denaturation of proteins. The ability of a substance to stop proteins from becoming denaturized has a role in the prevention of inflammatory disorders. […] Denaturation of proteins is accomplished by keeping the reaction mixture in a water bath at 70 °C for […].
Minor modifications were made to Mizushima and Kobayashi’s and Sakat et al. methodologies. The reaction mixture containing 0.2 mL of egg albumin (from a fresh hen’s egg) is mixed with 2.8 mL of phosphate-buffered saline (PBS, pH 6.4) and 2 mL of synthesized compounds in varying concentrations. The mixture was then heated at 70 °C for 5 min after being incubated at 37 °C for approximately 15–20 min. After cooling, their absorbance was measured at 660 nm spectrometrically. Three duplicates of the experiment were carried out. […] Percentage inhibition = (OD control − OD sample/OD control) × 100

human PPARγ- LBD = biological target: T1, human PPARγ- LBD (Homo sapiens, UniProt P37231); assay: Lanthascreen TR-FRET PPARγ competitive binding assay; settings: for IC50: Lanthascreen TR-FRET competitive binding; for Raw Data / Raw Data - Background: TR-FRET
T1 construct: a mixture of a human PPARγ- LBD labelled with glutathione S-transferase (GST)
T1 sequence (P37231 238-503 limits assumed): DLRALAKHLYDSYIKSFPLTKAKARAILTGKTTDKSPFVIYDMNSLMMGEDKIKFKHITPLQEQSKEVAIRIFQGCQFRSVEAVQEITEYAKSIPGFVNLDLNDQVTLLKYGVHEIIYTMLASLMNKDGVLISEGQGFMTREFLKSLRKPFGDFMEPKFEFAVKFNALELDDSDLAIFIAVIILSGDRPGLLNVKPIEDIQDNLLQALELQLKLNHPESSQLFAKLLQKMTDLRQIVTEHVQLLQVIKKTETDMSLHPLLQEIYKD
Method: Using the Lanthasreen TR-FRET assay, the synthesized compounds were first preliminary tested for the PPARγ binding affinity. […] A chemical under test displaces the tracer from PPAR-LBD, which lowers the TR-FRET ratio and decreases the FRET signal Figure 8 [33].
A multimode low-volume proxy plate reader was used to read the plates after one hour of incubation. Then, a mixture of a human PPARγ- LBD labelled with glutathione S-transferase (GST), a fluorescent small pan-PPAR ligand (FluormoneTM Pan-PPAR Green), and terbium-labeled anti-GST antibody was added.

| SMILES | HRBC membrane stabilization (percentage protection against HRBC lysis) ([1]; 6.25 µM) [%] | HRBC membrane stabilization (percentage protection against HRBC lysis) ([1]; 12.5 µM) [%] | HRBC membrane stabilization (percentage protection against HRBC lysis) ([1]; 25 µM) [%] | HRBC membrane stabilization (percentage protection against HRBC lysis) ([1]; 50 µM) [%] | HRBC membrane stabilization (percentage protection against HRBC lysis) ([1]; 100 µM) [%] | HRBC membrane stabilization (percentage protection against HRBC lysis) ([1]; 200 µM) [%] | HRBC membrane stabilization (percentage protection against HRBC lysis) ([1]; 400 µM) [%] | IC50 [1] [µM] | inhibition at 6.25 µM (egg albumin) [%] | inhibition at 12.5 µM (egg albumin) [%] | inhibition at 25 µM (egg albumin) [%] | inhibition at 50 µM (egg albumin) [%] | inhibition at 100 µM (egg albumin) [%] | inhibition at 200 µM (egg albumin) [%] | inhibition at 400 µM (egg albumin) [%] | IC50 (human PPARγ- LBD) [µM] | Raw Data (human PPARγ- LBD; 0.0000512 µM) [RLU] | Raw Data - Background (human PPARγ- LBD; 0.0000512 µM) [RLU] | Raw Data (human PPARγ- LBD; 0.000256 µM) [RLU] | Raw Data - Background (human PPARγ- LBD; 0.000256 µM) [RLU] | also measured |
| --- | --- | --- | --- | --- | --- | --- | --- | --- | --- | --- | --- | --- | --- | --- | --- | --- | --- | --- | --- | --- | --- |
| C=CCc1ccc(OCC(=O)Nc2ccc([N+](=O)[O-])cc2)c(OC)c1 [Compound 1b, 2-(4-Allyl-2-methoxyphenoxy)-N-(4-nitrophenyl)acetamide] | 3.19 ± 0.28 | 9.10 ± 0.28 | 15.55 ± 0.28 | 27.49 ± 0.36 | 36.16 ± 0.48 | 45.07 ± 0.28 | 58.36 ± 0.28 | 83.2 | 2.06 ± 0.17 | 4.44 ± 0.36 | 8.42 ± 0.24 | 13.4 ± 0.24 | 17.6 ± 0.18 | 21.2 ± 0.3 | 32.2 ± 0.4 | 42.4 | 2.014 | 1.767 | 1.849 | 1.755 | Raw Data (human PPARγ- LBD; 0.00128 µM): 1.865 RLU; Raw Data - Background (human PPARγ- LBD; 0.00128 µM): 1.732 RLU; Raw Data (human PPARγ- LBD; 0.0064 µM): 1.857 RLU; Raw Data - Background (human PPARγ- LBD; 0.0064 µM): 1.671 RLU; Raw Data (human PPARγ- LBD; 0.032 µM): 1.859 RLU; Raw Data - Background (human PPARγ- LBD; 0.032 µM): 1.568 RLU; Raw Data (human PPARγ- LBD; 0.16 µM): 1.896 RLU; Raw Data - Background (human PPARγ- LBD; 0.16 µM): 1.724 RLU; Raw Data (human PPARγ- LBD; 0.8 µM): 2.012 RLU; Raw Data - Background (human PPARγ- LBD; 0.8 µM): 1.756 RLU; Raw Data (human PPARγ- LBD; 4 µM): 1.779 RLU; Raw Data - Background (human PPARγ- LBD; 4 µM): 1.596 RLU; Raw Data (human PPARγ- LBD; 20 µM): 1.199 RLU; Raw Data - Background (human PPARγ- LBD; 20 µM): 1.025 RLU; Raw Data (human PPARγ- LBD; 100 µM): 0.421 RLU; Raw Data - Background (human PPARγ- LBD; 100 µM): 0.2685 RLU |
| C=CCc1ccc(OCC(=O)Nc2cccc(Cl)c2)c(OC)c1 [Compound 1e, 2-(4-Allyl-2-methoxyphenoxy)-N-(3-chlorophenyl)acetamide] | 12.36 ± 0.48 | 19.68 ± 0.38 | 34.50 ± 0.36 | 42.00 ± 0.56 | 51.04 ± 0.46 | 66.05 ± 0.36 | 75.09 ± 0.36 | 58.1 | 5.49 ± 0.43 | 9.47 ± 0.39 | 15.7 ± 0.24 | 22.35 ± 0.18 | 38.61 ± 0.3 | 48.21 ± 0.18 | 56.62 ± 0.37 | 11.5 | 2.087 | 1.839 | 1.860 | 1.610 | Raw Data (human PPARγ- LBD; 0.00128 µM): 1.903 RLU; Raw Data - Background (human PPARγ- LBD; 0.00128 µM): 1.678 RLU; Raw Data (human PPARγ- LBD; 0.0064 µM): 1.927 RLU; Raw Data - Background (human PPARγ- LBD; 0.0064 µM): 1.692 RLU; Raw Data (human PPARγ- LBD; 0.032 µM): 1.988 RLU; Raw Data - Background (human PPARγ- LBD; 0.032 µM): 1.752 RLU; Raw Data (human PPARγ- LBD; 0.16 µM): 1.922 RLU; Raw Data - Background (human PPARγ- LBD; 0.16 µM): 1.688 RLU; Raw Data (human PPARγ- LBD; 0.8 µM): 1.820 RLU; Raw Data - Background (human PPARγ- LBD; 0.8 µM): 1.683 RLU; Raw Data (human PPARγ- LBD; 4 µM): 1.752 RLU; Raw Data - Background (human PPARγ- LBD; 4 µM): 1.522 RLU; Raw Data (human PPARγ- LBD; 20 µM): 1.018 RLU; Raw Data - Background (human PPARγ- LBD; 20 µM): 0.721 RLU; Raw Data (human PPARγ- LBD; 100 µM): 0.834 RLU; Raw Data - Background (human PPARγ- LBD; 100 µM): 0.586 RLU |
